Results reported in patent publication US6730672B2, “Aminoheterocyclic derivatives as antithrombotic or anticoagulant agents” (Zeneca Limited, priority 1994, dated 2004).
pIC50: −log10 of the molar value.

biological target: human Factor Xa (Homo sapiens, UniProt P00742); test: Measurement of Factor Xa Inhibition (chromogenic substrate S-2765); format: biochemical; details: test a), pH7.5, 37° C., read-out: IC50 against Factor Xa
Protocol: a) Measurement of Factor Xa Inhibition
An in vitro assay system was carried out based on the method of Kettner et al., J. Biol. Chem., 1990, 265, 18289-18297, whereby various concentrations of a test compound were dissolved in a pH7.5 buffer containing 0.5% of polyethylene glycol and incubated at 37° C. with human Factor Xa (0.001 Units/ml, 0.3 ml) for 15 minutes. The chromogenic substrate S-2765 (KabiVitum AB, 20 μM) was added and the mixture was incubated at 37° C. for 20 minutes whilst the absorbance at 405 nm was measured. The maximum reaction velocity (Vmax) was determined and compared with that of a control sample containing no test compound. Inhibitor potency was expressed as an IC50 value.

Sequence of human Factor Xa (P00742 235-488 limits assumed): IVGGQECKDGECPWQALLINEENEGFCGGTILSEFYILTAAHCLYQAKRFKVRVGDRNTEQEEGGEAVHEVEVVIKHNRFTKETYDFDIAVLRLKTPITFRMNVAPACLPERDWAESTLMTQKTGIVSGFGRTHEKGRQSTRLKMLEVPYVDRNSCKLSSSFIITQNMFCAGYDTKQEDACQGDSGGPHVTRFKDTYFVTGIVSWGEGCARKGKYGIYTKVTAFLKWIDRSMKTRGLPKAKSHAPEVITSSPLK
Sequence of human Factor Xa (P00742 41-179 partner limits assumed): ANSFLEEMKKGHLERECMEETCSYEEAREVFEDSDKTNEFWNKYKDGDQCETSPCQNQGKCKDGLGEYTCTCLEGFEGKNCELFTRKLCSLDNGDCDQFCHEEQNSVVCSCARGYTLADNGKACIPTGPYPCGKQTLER

| pIC50 | SMILES |
| --- | --- |
| 8.00 | O=C(C1CCN(c2ccncc2)CC1)N1CCN(S(=O)(=O)c2ccc(-c3ccc(Cl)cc3)cc2)CC1 [Example 41, Compound No. 3, 1-(4′-chloro-4-biphenylylsulphonyl)-4-[1-(4-pyridyl)-piperidin-4-ylcarbonyl]piperazine] |

system: not given; test: not given; details: not given

| SMILES | melting point |
| --- | --- |
| Cl.O=C(c1ccc(NS(=O)(=O)c2ccc(-c3ccc(Br)cc3)cc2)cc1)N1CCN(c2ccncc2)CC1 | 201 to 205 °C |
| Cc1ccc(NC(=O)NC(CNC(=O)C2CCN(c3ccncc3)CC2)C(=O)N2CCCCC2)cc1 (stereo not drawn) [Example 22, N-{2-piperidinocarbonyl-2-[3-(4-tolyl)ureido]ethyl}-1-(4-pyridyl)-piperidine-4-carboxamide] | 252 to 253 °C |
| O=C(N1CCN(c2ccncc2)CC1)N1CCN(S(=O)(=O)c2ccc3ccccc3c2)CC1 [Example 50, 1-(2-naphthylsulphonyl)-4-[4-(4-pyridyl)-piperazin-1-ylcarbonyl]piperazine] | 210 to 212 °C |
| O=C(C1CCN(c2ccncn2)CC1)N1CCN(S(=O)(=O)c2ccc3ccccc3c2)CC1 [Example 55, 1-(2-naphthylsulphonyl)-4-[1-(4-pyrimidinyl)piperidin-4-ylcarbonyl]-piperazine] | 203 to 205 °C |
| O=C(C1CCN(c2ccncn2)CC1)N1CCN(S(=O)(=O)/C=C/c2ccc(Cl)cc2)CC1 [Example 57, 1-[(E)-4-chlorostyrylsulphonyl]-4-[1-(4-pyrimidinyl)piperidin-4-ylcarbonyl]piperazine] | 209 to 210 °C |
| Cc1ccc(-c2ccc(S(=O)(=O)N3CCN(C(=O)C4CCN(c5ccncc5)CC4)CC3)cc2)cc1 [Example 58, 1-(4′-methylbiphenyl-4-ylsulphonyl)-4-[1-(4-pyridyl)piperidin-4-ylcarbonyl]piperazine] | 213 to 217 °C |
| O=C(C1CCN(c2ccncc2)CC1)N1CCN(S(=O)(=O)c2ccc(-c3ccccn3)cc2)CC1 [Example 60, 1-[4-(2-pyridyl)phenylsulphonyl]-4-[1-(4-pyridyl)piperidin-4-ylcarbonyl]piperazine] | 224 to 226 °C |
| O=C(C1CCN(c2ccncn2)CC1)N1CCN(S(=O)(=O)c2ccc3cc(Cl)ccc3c2)CC1 [Example 69, 1-(6-chloronaphth-2-ylsulphonyl)-4-[1-(4-pyrimidinyl)-piperidin-4-ylcarbonyl]piperazine] | 218 to 219 °C |
| Nc1nccc(N2CCC(C(=O)N3CCN(S(=O)(=O)c4ccc5cc(Cl)ccc5c4)CC3)CC2)n1 [Example 70, 4-[1-(2-aminopyrimidin-4-yl)piperidin-4-ylcarbonyl]-1-(6-chloronaphth-2-ylsulphonyl)piperazine] | 265 to 267 °C |
| O=C(C1CCN(c2nc(Cl)nc(Cl)n2)CC1)N1CCN(S(=O)(=O)c2ccc3cc(Cl)ccc3c2)CC1 [Example 73, 1-(6-chloronaphth-2-ylsulphonyl)-4-[1-(4,6-dichloro-1,3,5-triazin-2-yl)piperidin-4-ylcarbonyl]piperazine] | 230 to 233 °C |
| CCOC(=O)C1CN(S(=O)(=O)c2ccc3cc(Br)ccc3c2)CCN1C(=O)C1CCN(c2ccncc2)CC1 (stereo not drawn) [Example 82, 4-(6-bromonaphth-2-ylsulphonyl)-2-ethoxycarbonyl-1-[1-(4-pyridyl)-piperidin-4-ylcarbonyl]piperazine] | 117 to 121 °C |
| O=C(O)C1CN(S(=O)(=O)c2ccc3cc(Br)ccc3c2)CCN1C(=O)C1CCN(c2ccncc2)CC1 (stereo not drawn) [Example 83, 4-(6-bromonaphth-2-ylsulphonyl)-2-carboxy-1-[1-(4-pyridyl)piperidin-4-ylcarbonyl]piperazine] | 216 to 222 °C (dec.) |
| O=C(C1CN(S(=O)(=O)c2ccc3cc(Br)ccc3c2)CCN1C(=O)C1CCN(c2ccncc2)CC1)N1CCOCC1 (stereo not drawn) [Example 84, 4-(6-bromonaphth-2-ylsulphonyl)-2-morpholinocarbonyl-1-[1-(4-pyridyl)-piperidin-4-ylcarbonyl]piperazine] | 235 to 237 °C |
| Cc1cc(N2CCC(C(=O)N3CCN(S(=O)(=O)c4ccc5cc(Cl)ccc5c4)CC3)CC2)nc(N)n1 [Example 86, 4-[1-(2-amino-6-methylpyrimidin-4-yl)piperidin-4-ylcarbonyl]-1-(6-chloronaphth-2-ylsulphonyl)piperazine] | 210 to 212 °C |
| O=C(c1ccc(NS(=O)(=O)/C=C/c2ccc(Cl)cc2)cc1)N1CCN(c2ccncc2)CC1 [Example 89, N-{4-[4-(4-pyridyl)piperazin-1-ylcarbonyl]phenyl}-(E)-4-chlorostyrenesulphonamide] | 207 to 209 °C |
| O=C(C1CCN(S(=O)(=O)c2ccc3cc(Br)ccc3c2)CC1)N1CCN(c2ccncc2)CC1 [Example 92, 1-[1-(6-bromonaphth-2-ylsulphonyl)piperidin-4-ylcarbonyl]-4-(4-pyridyl)piperazine] | 229 to 230 °C |

The next lines start with the values.

| melting point | SMILES |
| --- | --- |
| 172 to 173 °C | O=C(C1CCN(c2ccncc2)CC1)N1CCN(S(=O)(=O)c2ccc3ccccc3c2)CC1 [Example 2, 1-(2-naphthylsulphonyl)-4-[1-(4-pyridyl)piperidin-4-ylcarbonyl]piperazine] |
| 223 to 226 °C | O=C(CNS(=O)(=O)c1ccc2ccccc2c1)NC(CNC(=O)N1CCN(c2ccncc2)CC1)C(=O)N1CCCCC1 (stereo not drawn) [Example 3, 2-(2-naphthalenesulphonamido)-N-{1-piperidinocarbonyl-2-[4-(4-pyridyl)piperazin-1-ylcarbonylamino]-ethyl}acetamide] |
| 148 to 149 °C | O=C(CC1CCN(c2ccncc2)CC1)NCC(NC(=O)CNS(=O)(=O)c1ccc2ccccc2c1)C(=O)N1CCCCC1 (stereo not drawn) [Example 4, 2-(2-naphthalenesulphonamido)-N-(1-piperidinocarbonyl-2-{2-[1-(4-pyridyl)piperidin-4-yl]acetamido}ethyl)acetamide] |
| 142 to 145 °C | CCOC(=O)C(CNC(=O)C1CCN(c2ccncc2)CC1)NC(=O)CNS(=O)(=O)c1ccc2ccccc2c1 (stereo not drawn) [Example 6, N-{1-ethoxycarbonyl-2-[1-(4-pyridyl)-piperidin-4-ylcarbonylamino]ethyl}-2-(2-naphthalenesulphonamido)-acetamide] |
| 108 to 111 °C (dec.) | O=C(CNS(=O)(=O)c1ccc2ccccc2c1)NC(CNC(=O)C1CCN(c2ccncc2)CC1)C(=O)O (stereo not drawn) [Example 9, 2-[2-(2-naphthalenesulphonamido)acetamido]-3-[1-(4-pyridyl)piperidin-4-ylcarbonylamino]propionic acid] |
| 200 to 202 °C | O=C(CNS(=O)(=O)c1ccc2ccccc2c1)NCC(NC(=O)C1CCN(c2ccncc2)CC1)C(=O)N1CCCCC1 (stereo not drawn) [Example 11, 2-(2-naphthalenesulphonamido)-N-{2-piperidinocarbonyl-2-[1-(4-pyridyl)piperidin-4-ylcarbonylamino]ethyl}acetamide] |
| 201 to 203 °C | O=C(CNS(=O)(=O)c1ccc2ccccc2c1)N[C@@H](CC(=O)N1CCN(c2ccncc2)CC1)C(=O)N1CCCCC1 [Example 18, 2-(2-naphthalenesulphonamido)-N-{(1S)-1-(piperidinocarbonyl)-2-[4-(4-pyridyl)piperazin-1-ylcarbonyl]ethyl}-acetamide] |
| 201 to 203 °C | O=C(CCNS(=O)(=O)c1ccc2ccccc2c1)NC(CNC(=O)C1CCN(c2ccncc2)CC1)C(=O)N1CCCCC1 (stereo not drawn) [Example 20, 3-(2-naphthalenesulphonamido)-N-{1-(piperidinocarbonyl)-2-[1-(4-pyridyl)piperidin-4-ylcarbonylamino]ethyl}propionamide] |
| 107 to 109 °C | O=C(CNS(=O)(=O)c1ccc2ccccc2c1)NCCNC(=O)C1CCN(c2ccncc2)CC1 [Example 30, 2-(2-naphthalenesulphonamido)-N-{2-[1-(4-pyridyl)piperidin-4-ylcarbonylamino]ethyl}acetamide] |
| 178 to 179 °C | O=C(CNS(=O)(=O)c1ccc2ccccc2c1)NCCNC(=O)C1CCN(c2ccncn2)CC1 [Example 32, 2-(2-naphthalenesulphonamido)-N-{2-[1-(4-pyrimidinyl)piperidin-4-ylcarbonylamino]ethyl}acetamide] |
| 225 to 226 °C | Cc1cc(N2CCC(C(=O)NCCNC(=O)CNS(=O)(=O)c3ccc4ccccc4c3)CC2)nc(N)n1 [Example 34, N-{2-[1-(2-amino-6-methylpyrimidin-4-yl)piperidin-4-ylcarbonylamino]ethyl}-2-(2-naphthalenesulphonamido)acetamide] |
| 188 to 193 °C | O=C(O)C1CN(C(=O)C2CCN(c3ccncc3)CC2)CCN1S(=O)(=O)c1ccc2ccccc2c1 (stereo not drawn) [Example 43, 1-(2-naphthylsulphonyl)-4-[1-(4-pyridyl)piperidin-4-ylcarbonyl]-piperazine-2-carboxylic acid] |
| 178 to 180 °C | O=C(C1CCN(c2ccncc2)CC1)N1CCCN(S(=O)(=O)c2ccc3ccccc3c2)CC1 [Example 49, 1-(2-naphthylsulphonyl)-4-[1-(4-pyridyl)piperidin-4-ylcarbonyl]-1,4-diazepane] |
| 225 to 228 °C (dec.) | O=C(O)C1CN(S(=O)(=O)c2ccc3ccccc3c2)CCN1C(=O)C1CCN(c2ccncc2)CC1 (stereo not drawn) [Example 61, 2-carboxy-4-(2-naphthylsulphonyl)-1-[1-(4-pyridyl)piperidin-4-ylcarbonyl]piperazine] |
| 186 to 188 °C | O=C(C1CCN(c2ccncc2)CC1)N1CCN(S(=O)(=O)c2ccc3ccccc3c2)C(Cc2ccccc2)C1 (stereo not drawn) [Example 66, 2-benzyl-1-(2-naphthylsulphonyl)-4-[1-(4-pyridyl)piperidin-4-ylcarbonyl]piperazine] |

biological target: human thrombin (Homo sapiens, UniProt P00734); test: Measurement of Thrombin Inhibition (chromogenic substrate S-2238); format: biochemical; details: test b), read-out: IC50 against thrombin
Description: b) Measurement of Thrombin Inhibition
The procedure of method a) was repeated except that human thrombin (0.005 Units/ml) and the chromogenic substrate S-2238 (KabiVitum AB) were employed.

| pIC50 | SMILES |
| --- | --- |
| 4.08 | O=C(C1CCN(c2ccncc2)CC1)N1CCN(S(=O)(=O)c2ccc(-c3ccc(Cl)cc3)cc2)CC1 [Example 41, Compound No. 3, 1-(4′-chloro-4-biphenylylsulphonyl)-4-[1-(4-pyridyl)-piperidin-4-ylcarbonyl]piperazine] |
